The values below come from patent US6660872B1, “Method of producing methoxyimino acetic amide” (Bayer Aktiengesellschaft, priority 1999, dated 2003).

The nature of the series: determination of the logP-Values by HPLC according to EEC-Direktive 79/831 Annex V. A8. Format: physicochemical. To be noted: gradient method, acetonitrile/0,1% aqueous phosphoric acid; for chromatographic logP: HPLC (gradient, acetonitrile/0.1% aqueous phosphoric acid), read-out: log p. As for the experimental part:
The determination of the logP-Values was carried out for all examples according to the EEC-Direktive 79/831 Annex V. A8 by HPLC (gradient method, acetonitrile/0,1% aqueous phosphoric acid).

Each structure is given as a SMILES string. Where “and” joins values, the source holds several entries; their conditions need not be identical. Equal entries are not always repeated.

In turn, `CNC(=O)/C(=N/OC)c1ccccc1Oc1ncnc(Oc2ccccc2Cl)c1F` (single isomer, unassigned) [XI-2, E-isomer, N-methyl-E-2-[2-(5-fluoro-2′-chlorophenoxypyrimidin-4-yloxy)phenyl]-2-methoxyiminoacetamide] returned a log p of 3.01.
Same read-out and setting: under `CNC(=O)/C(=N\OC)c1ccccc1Oc1ncnc(Oc2ccccc2Cl)c1F` (single isomer, unassigned) [XI-2, Z-isomer, N-methyl-Z-2-[2-(5-fluoro-2′-chlorophenoxypyrimidin-4-yloxy)-phenyl]-2-methoxyiminoacetamide] stands 2.95 and 2.94.
As to `O=C1Oc2ccccc2/C1=N\O` [E-benzofuran-2,3-dione 3-oxime], the chromatographic logP turned out to be 1.55.
On the same count and under the same terms, the value for `CNC(=O)/C(=N/OC)c1ccccc1O` [N-methyl-E-2-(2-hydroxyphenyl)-2-methoxyimino-acetamide] was 0.98.
Same read-out and setting: the value for `CNC(=O)/C(=N/OC)c1ccccc1Oc1ncnc(F)c1F` [N-methyl-E-2-[2-(5,6-difluoropyrimidin-4-yloxy)-phenyl]-2-methoxyiminoacetamide] was 1.95.
On the same count and under the same terms, under `CNC(=O)/C(=N\OC)c1ccccc1O` [N-methyl-Z-2-(2-hydroxyphenyl)-2-methoxyiminoacetamide] stands 1.29; under `CNC(=O)/C(=N\OC)c1ccccc1Oc1ncnc(F)c1F` [N-methyl-Z-2-[2-(5,6-difluoro-pyrimidin-4-yloxy)phenyl]-2-methoxyiminoacetamide], 1.87.
Take `CNC(=O)/C(=N/OC)c1ccccc1Oc1ncnc(Oc2cccc(Cl)c2C)c1F` [XI-1, E-isomer, N-methyl-E-2-[2-(5-fluoro-2′-methyl-3′-chlorophenoxypyrimidin-4-yloxy)phenyl]-2-methoxyiminoacetamide]: the chromatographic logP is 3.51 and the log p is on record as 3.50.
Taken in the same sequence, the figures for `CNC(=O)/C(=N\OC)c1ccccc1Oc1ncnc(Oc2cccc(Cl)c2C)c1F` [XI-1, Z-isomer, N-methyl-Z-2-[2-(5-fluoro-2′-methyl-3′-chlorophenoxy-pyrimidin-4-yloxy)phenyl]-2-methoxyiminoacetamide] were 3.44 and 3.43.
`COC(=O)C(=O)c1ccccc1O` [methyl 2-hydroxyphenylglyoxylate]: the chromatographic logP turned out to be 1.87.
On the same count and under the same terms, the value for `COC(=O)/C(=N/O)c1ccccc1O` [methyl E-2-(2-hydroxyphenyl)-2-hydroxyimino-acetate] was 0.95.
On the same count and under the same terms, under `CO/N=C(/C(=O)OC)c1ccccc1O` [methyl E-2-(2-hydroxyphenyl)-2-methoxyimino-acetate] stands 1.48.
Regarding `COC(=O)/C(=N\O)c1ccccc1O` [methyl Z-2-(2-hydroxyphenyl)-2-hydroxyimino-acetate], the chromatographic logP worked out at 1.68 and the log p is on record as 1.70.
Turning to `CO/N=C(\C(=O)OC)c1ccccc1O` [methyl Z-2-(2-hydroxyphenyl)-2-methoxyimino-acetate], the chromatographic logP amounted to 2.39; the log p was 2.38 and 2.37.
